Publication PMC11066877, “Development and Characterization of Novel FAP-Targeted Theranostic Pairs: A Bench-to-Bedside Study” (Research, 2023)

How the values were obtained:
[1] = molecular target: T1, recombinant murine FAP protein (Mus musculus, UniProt P97321); experiment: SPR binding to immobilized recombinant murine FAP protein
T1 construct: purchased ACRO Biosystems FAP-M52H3
T1 sequence (P97321 1-761): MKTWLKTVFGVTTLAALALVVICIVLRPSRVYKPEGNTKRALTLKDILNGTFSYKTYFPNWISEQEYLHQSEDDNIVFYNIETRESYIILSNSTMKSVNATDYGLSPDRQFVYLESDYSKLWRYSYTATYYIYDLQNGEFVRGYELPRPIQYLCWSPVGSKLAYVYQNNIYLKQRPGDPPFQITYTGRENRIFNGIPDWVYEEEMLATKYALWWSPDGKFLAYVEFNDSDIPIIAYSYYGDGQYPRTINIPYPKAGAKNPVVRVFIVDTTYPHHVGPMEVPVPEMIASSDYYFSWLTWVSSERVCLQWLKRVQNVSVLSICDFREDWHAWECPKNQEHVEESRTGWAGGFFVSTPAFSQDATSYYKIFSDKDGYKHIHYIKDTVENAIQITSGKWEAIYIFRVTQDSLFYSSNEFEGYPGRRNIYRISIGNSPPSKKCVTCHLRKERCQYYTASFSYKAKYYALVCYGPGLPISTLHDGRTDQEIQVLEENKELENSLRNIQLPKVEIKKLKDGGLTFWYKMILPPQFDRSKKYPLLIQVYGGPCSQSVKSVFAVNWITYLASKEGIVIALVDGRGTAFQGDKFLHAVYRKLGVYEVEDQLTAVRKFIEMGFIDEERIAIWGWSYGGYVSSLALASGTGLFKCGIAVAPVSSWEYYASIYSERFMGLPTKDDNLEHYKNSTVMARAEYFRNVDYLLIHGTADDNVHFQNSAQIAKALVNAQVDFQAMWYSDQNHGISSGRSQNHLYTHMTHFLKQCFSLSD
Method: (§1) The Biacore SPR interaction study was conducted to determine the binding kinetics between the peptides and the immobilized human FAP protein (FAP-H5244, ACRO Biosystems) or murine FAP protein (FAP-M52H3, ACRO Biosystems) as target antigens. The final binding affinity, represented by the equilibrium dissociation degree (M) or KD, was calculated by examining the relationship between the binding rate constant (ka) (M^−1 s^−1) and the dissociation rate (kd) (s^−1).

[2] = molecular target: T2, recombinant human FAP protein (Homo sapiens, UniProt Q12884); experiment: SPR binding to immobilized recombinant human FAP protein
T2 construct: purchased ACRO Biosystems FAP-H5244
T2 sequence (Q12884 1-760): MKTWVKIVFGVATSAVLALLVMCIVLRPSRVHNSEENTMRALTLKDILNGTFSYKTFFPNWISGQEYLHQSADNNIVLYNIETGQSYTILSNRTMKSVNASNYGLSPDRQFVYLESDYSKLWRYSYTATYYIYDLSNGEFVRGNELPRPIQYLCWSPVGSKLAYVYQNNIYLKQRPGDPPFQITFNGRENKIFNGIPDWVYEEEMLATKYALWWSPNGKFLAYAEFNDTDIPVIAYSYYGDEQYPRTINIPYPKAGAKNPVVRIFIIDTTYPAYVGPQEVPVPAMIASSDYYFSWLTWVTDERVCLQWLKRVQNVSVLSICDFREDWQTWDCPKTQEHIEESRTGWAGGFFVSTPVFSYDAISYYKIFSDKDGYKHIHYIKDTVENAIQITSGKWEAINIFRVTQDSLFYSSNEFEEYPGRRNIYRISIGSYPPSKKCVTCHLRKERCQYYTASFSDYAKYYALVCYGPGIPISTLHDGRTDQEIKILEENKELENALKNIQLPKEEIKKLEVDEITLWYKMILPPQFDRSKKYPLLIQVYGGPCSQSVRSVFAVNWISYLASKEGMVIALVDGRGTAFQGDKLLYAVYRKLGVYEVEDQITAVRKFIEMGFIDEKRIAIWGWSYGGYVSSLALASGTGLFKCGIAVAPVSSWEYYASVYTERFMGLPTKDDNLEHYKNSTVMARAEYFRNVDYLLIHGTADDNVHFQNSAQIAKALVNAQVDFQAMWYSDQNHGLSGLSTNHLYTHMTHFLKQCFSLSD
Method: as §1

[3] = microPET/CT imaging, ROI analysis, HT1080-FAP tumor models; type: in vivo, mice; conditions: nude (thymus-free), mouse, intravenous, 3 MBq, HT1080-FAP tumor
Method: (§2) A human pancreatic cancer cell line BxPC-3 and a murine pancreatic cancer cell Panc-02 were obtained from the American Type Culture Collection. The pancreatic cancer cell line T3M-4 was purchased by MeisenCTCC (Zhejiang, China). BxPC-3 and T3M-4 cell lines were grown in RPMI 1640 medium (Shanghai BasalMedia Technologies Co., LTD.) containing 10% FBS (GE Healthcare, Chicago, IL, USA) and 1% penicillin–streptomycin solution (Invitrogen). To culture the Panc-02 cell line, a medium called Dulbecco’s modified Eagle medium from Shanghai BasalMedia Technologies Co., LTD. was used, which consisted of 10% FBS. The cell line HT-1080 was grown in MEM medium (Shanghai BasalMedia Technologies Co., LTD.) supplemented with 10% FBS, 1% penicillin-streptomycin solution, and 1% nonessential amino acids (NEAA-11140050; Gibco). A human fibrosarcoma cell line was stably transfected with FAP (HT1080-FAP) and cultured, as we previously described. All cell lines were cultured in a humid incubator with 5% CO2 at a temperature of 37 °C. Approval was granted by the Institutional Animal Care and Use Committee (Renji Hospital, School of Medicine, Shanghai Jiao Tong University) for all experimental protocols and procedures related to animal care. Panc-02 cells were implanted by subcutaneous injection of 5 × 10^6 tumor cells suspended in 100 μl PBS and matrigel matrix (Corning) with equal volume into the upper limb flank of C57BL/6 mice (Shanghai Sheng Chang Biotechnology Co., Ltd.). Four- to 6-week-old thymus-free nude mice (GemPharmatech) were subcutaneously inoculated with BxPC-3, T3M-4, HT-1080, and HT1080-FAP cells (5 × 10^6 in 100 μl of PBS mixing with 100 μl matrigel matrix) in the right shoulder. Follow-up microPET/CT imaging and ex vivo biodistribution experiments were performed when the tumor diameter reached 8 to 9 mm.
MicroPET imaging was performed on isoflurane-anesthetized mice injected intravenously via the lateral tail vein with around 3 MBq (2.5 nmol) of the radioligand at certain times. Regarding the FD1 blocking group, an excessive amount of unlabeled FD1 (200-fold) was simultaneously injected with [^68Ga]Ga-DOTA-FD1 into the tail vein of another batch of mice. Images were acquired using an IRIS PET/CT system (Inviscan Imaging Systems). PET data were reconstructed using a nonscatter-corrected 3D-ordered subset expectation […]/maximum a posteriori (OSEM3D/MAP) algorithm. The information was analyzed using OsiriX Lite software (Pixmeo SARL) and Inveon Research Workplace (Siemens Preclinical Solutions). The percentage of injected dose per gram of tissue (%ID/g, mean ± SD) was utilized to present the distribution of tracers in the ROI, encompassing tumor, heart, lung, liver, kidney, and muscle.

[4] = Ex vivo biodistribution after imaging, HT-1080 tumor models; type: in vivo, mice; conditions: nude (thymus-free), mouse, intravenous, 3 MBq, total radioactivity, 4.5 h p.i.
Method: A human pancreatic cancer cell line BxPC-3 and a murine pancreatic cancer cell Panc-02 were obtained from the American Type Culture Collection. The pancreatic cancer cell line T3M-4 was purchased by MeisenCTCC (Zhejiang, China). BxPC-3 and T3M-4 cell lines were grown in RPMI 1640 medium (Shanghai BasalMedia Technologies Co., LTD.) containing 10% FBS (GE Healthcare, Chicago, IL, USA) and 1% penicillin–streptomycin solution (Invitrogen). To culture the Panc-02 cell line, a medium called Dulbecco’s modified Eagle medium from Shanghai BasalMedia Technologies Co., LTD. was used, which consisted of 10% FBS. The cell line HT-1080 was grown in MEM medium (Shanghai BasalMedia Technologies Co., LTD.) supplemented with 10% FBS, 1% penicillin-streptomycin solution, and 1% nonessential amino acids (NEAA-11140050; Gibco). […]
After imaging collection and image reconstruction, samples from euthanized experimental mice, including blood and multiple significant organs, were harvested and weighed. The radioactivity in each collected tissue was counted using an automated gamma counter (Wizard 2480, PerkinElmer) and the accumulation of radioactivity in different tissues and organs was quantified and expressed as %ID/g (mean ± SD). […] At the end of each probe imaging and radioactivity counting study, tumor tissues were fixed in paraformaldehyde tissue fixative. […]

[5] = microPET/CT imaging, ROI analysis, BxPC-3 tumor models; type: in vivo, mice; conditions: nude (thymus-free), mouse, intravenous, 3 MBq, 4 h p.i.
Method: as §2, with “Follow-up microPET/CT imaging and ex vivo biodistribution experiments were performed when the tumor diameter reached 8 to 9 mm.” left out
(§3) MicroPET imaging was performed on isoflurane-anesthetized mice injected intravenously via the lateral tail vein with around 3 MBq (2.5 nmol) of the radioligand at certain times. […] The information was analyzed using OsiriX Lite software (Pixmeo SARL) and Inveon Research Workplace (Siemens Preclinical Solutions). […]

[6] = Ex vivo biodistribution after imaging, HT1080-FAP tumor models; type: in vivo, mice; conditions: nude (thymus-free), mouse, intravenous, 3 MBq, total radioactivity; HT1080-FAP tumor, 4.5 h p.i.
Method: as §2
After imaging collection and image reconstruction, samples from euthanized experimental mice, including blood and multiple significant organs, were harvested and weighed. The radioactivity in each collected tissue was counted using an automated gamma counter (Wizard 2480, PerkinElmer) and the accumulation of radioactivity in different tissues and organs was quantified and expressed as %ID/g (mean ± SD). [^177Lu]Lu-DOTA-FD1 (~1.11 MBq, n = 3), [^177Lu]Lu-DOTA-FD2 (~1.11 MBq, n = 3), and [^177Lu]Lu-DOTA-FD3 (~1.11 MBq, n = 3) were injected into the tail vein of free nude mice at 6 h, 24 h, and 24 h for ex vivo biodistribution to verify the circulation time of the 3 probes in vivo. Biodistribution data from tumor-bearing mice injected with [^177Lu]Lu-DOTA-FD3 at 45 h (~1.11 MBq, n = 4) and 90 h (~1.11 MBq, n = 3) validated the prolonged enrichment of the probe at the tumor site. At the end of each probe imaging and radioactivity counting study, tumor tissues were fixed in paraformaldehyde tissue fixative. Briefly, sections of 10 μm were cut and stained for H&E following the standard protocols. IHC staining with a FAP antibody (ab227703, Abcam) was performed only on tumor tissues following accepted techniques.

[7] = microPET/CT imaging, ROI analysis, Panc-02 tumor models; type: in vivo, mice; conditions: C57BL/6, mouse, intravenous, 3 MBq, 4 h p.i.
Method: as §2, with “Follow-up microPET/CT imaging and ex vivo biodistribution experiments were performed when the tumor diameter reached 8 to 9 mm.” left out
as §3

[8] = microPET/CT imaging, ROI analysis, HT-1080 tumor models; type: in vivo, mice; conditions: nude (thymus-free), mouse, intravenous, 3 MBq, 4 h p.i.
Method: as §2, with “Follow-up microPET/CT imaging and ex vivo biodistribution experiments were performed when the tumor diameter reached 8 to 9 mm.” left out
as §3

Kd [1] | Kd [2] | tissue uptake at 0.5 h ([3]; 30 min) | tissue uptake at 2 h ([3]; 2 h) | tissue uptake at 4 h ([3]; 4 h) | tissue uptake at 4.5 h [4] | tissue uptake at 4 h [5] | tissue uptake at 4.5 h [6] | tissue uptake at 4 h [7] | tissue uptake at 4 h [8] | Structure (SMILES)
10.2 nM | 3.3 nM | – | – | – | – | – | – | – | – | CCCCCC(=O)N[C@H]1CSCc2cc(CSCCNC(=O)[C@H](CCCCN)NC(=O)[C@@H](NC(=O)[C@H](CCSC)NC(=O)CN3CCN(CC(=O)O)CCN(CC(=O)O)CCN(CC(=O)O)CC3)C(C)C)cc(c2)CSC[C@@H](C(=O)O)NC(=O)[C@H](Cc2ccccc2)NC(=O)[C@H](CCC(N)=O)NC(=O)[C@H]([C@@H](C)O)NC(=O)[C@@H]2CCCN2C(=O)[C@@H]2CCCN2C1=O [FD1]
11.6 nM | 2.06 nM | – | – | – | – | – | – | – | – | CCCCCC(=O)N[C@H]1CSCc2cc(CSCCNC(=O)[C@H](CCCCNC(=O)CCCc3ccc(I)cc3)NC(=O)CN3CCN(CC(=O)O)CCN(CC(=O)O)CCN(CC(=O)O)CC3)cc(c2)CSC[C@@H](C(=O)O)NC(=O)[C@H](Cc2ccccc2)NC(=O)[C@H](CCC(N)=O)NC(=O)[C@H]([C@@H](C)O)NC(=O)[C@@H]2CCCN2C(=O)[C@@H]2CCCN2C1=O [FD2]
13.7 nM | 6.25 nM | – | – | – | – | – | – | – | – | CCCCCC(=O)N[C@H]1CSCc2cc(CSCCNC(=O)[C@H](CCCCNC(=O)CCCc3ccc(I)cc3)NC(=O)[C@@H](NC(=O)[C@H](CCSC)NC(=O)CN3CCN(CC(=O)O)CCN(CC(=O)O)CCN(CC(=O)O)CC3)C(C)C)cc(c2)CSC[C@@H](C(=O)O)NC(=O)[C@H](Cc2ccccc2)NC(=O)[C@H](CCC(N)=O)NC(=O)[C@H]([C@@H](C)O)NC(=O)[C@@H]2CCCN2C(=O)[C@@H]2CCCN2C1=O [FD3]
– | – | 6.63 ± 0.64 %ID/g | 8.23 ± 2.61 %ID/g | 9.37 ± 0.61 %ID/g | 10.4 ± 1.84 %ID/g | 7.67 ± 0.38 %ID/g | 11.9 ± 1.83 %ID/g | 6.9 ± 0.51 %ID/g | 8.1 ± 0.52 %ID/g | CCCCCC(=O)N[C@H]1CSCc2cc(CSCCNC(=O)[C@H](CCCCNC(=O)CCCc3ccc(I)cc3)NC(=O)CN3CCN(CC(=O)O)CCN(CC(=O)O)CCN(CC(=O)O)CC3)cc(c2)CSC[C@@H](C(=O)O)NC(=O)[C@H](Cc2ccccc2)NC(=O)[C@H](CCC(N)=O)NC(=O)[C@H]([C@@H](C)O)NC(=O)[C@@H]2CCCN2C(=O)[C@@H]2CCCN2C1=O [[^68Ga]Ga-DOTA-FD2, metal not drawn]
